Experimental data reported in PubChem BioAssay AID248 (DTP/NCI, 2004).
“And” between values parts separate entries of the source, which are not always exact repeats. Identical values can stand only once. Inconclusive results and toxic doses are left out. Cut-off read from the data, not from the text of the source: active = T/C of 150% or more; inactive = T/C below 125%.

Test system: L1210 leukemia ip in BDF1 mice, survival T/C
Assay: NCI In Vivo Anticancer Drug Screen. Data for tumor model L1210 Leukemia (intraperitoneal) in B6D2F1 (BDF1) mice
Details: endpoint: mean survival time, higher = longer survival
Method in brief: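 Transplanted-tumor mice were given test agent; controls received vehicle only. Survival readings from the two groups were divided (treated over control).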

[1] = dose: 100.0 mg/kg/injection, schedule: Q01DX009 (ip), vehicle: saline
[2] = dose: 100.0 mg/kg/injection, schedule: Q04DX003 (ip), vehicle: saline
[3] = dose: 200.0 mg/kg/injection, schedule: Q01DX009 (ip), vehicle: saline
[4] = dose: 200.0 mg/kg/injection, schedule: Q04DX003 (ip), vehicle: saline
[5] = dose: 400.0 mg/kg/injection, schedule: Q01DX009 (ip), vehicle: saline
[6] = dose: 400.0 mg/kg/injection, schedule: Q04DX003 (ip), vehicle: saline
[7] = dose: 100.0 mg/kg/injection, schedule: Q01DX001 (ip), vehicle: saline
[8] = dose: 200.0 mg/kg/injection, schedule: Q01DX001 (ip), vehicle: saline
[9] = dose: 400.0 mg/kg/injection, schedule: Q01DX001 (ip), vehicle: saline
[10] = dose: 50.0 mg/kg/injection, schedule: Q01DX001 (ip), vehicle: saline
[11] = dose: 100.0 mg/kg/injection, schedule: Q04DX002 (ip), vehicle: saline with Tween-80
[12] = dose: 200.0 mg/kg/injection, schedule: Q04DX002 (ip), vehicle: saline with Tween-80
[13] = dose: 100.0 mg/kg/injection, schedule: Q04DX003 (ip), vehicle: Klucel (hydroxypropylcellulose) (HPC)
[14] = dose: 200.0 mg/kg/injection, schedule: Q04DX003 (ip), vehicle: Klucel (hydroxypropylcellulose) (HPC)
[15] = dose: 400.0 mg/kg/injection, schedule: Q04DX003 (ip), vehicle: Klucel (hydroxypropylcellulose) (HPC)
[16] = dose: 100.0 mg/kg/injection, schedule: Q04DX002 (ip), vehicle: Klucel (hydroxypropylcellulose) (HPC)
[17] = dose: 200.0 mg/kg/injection, schedule: Q04DX002 (ip), vehicle: Klucel (hydroxypropylcellulose) (HPC)
[18] = dose: 100.0 mg/kg/injection, schedule: Q01DX009 (ip), vehicle: Klucel (hydroxypropylcellulose) (HPC)
[19] = dose: 200.0 mg/kg/injection, schedule: Q01DX009 (ip), vehicle: Klucel (hydroxypropylcellulose) (HPC)
[20] = dose: 400.0 mg/kg/injection, schedule: Q01DX009 (ip), vehicle: Klucel (hydroxypropylcellulose) (HPC)

Measured: T/C

N#Cc1cnccn1
inactive: [1] 103 % of control | [2] 93 % of control | [3] 104 % of control | [4] 100 % of control | [5] 104 % of control | [6] 93 % of control

O=c1nc2c(ncn2C2OC(CO)C(O)C2O)c(NCCc2ccccc2)[nH]1 (stereo unspecified)
inactive: dose: 50.0 mg/kg/injection, schedule: Q01DX005 (ip), vehicle: water 100 % of control | dose: 100.0 mg/kg/injection, schedule: Q01DX005 (ip), vehicle: water 94 % of control | dose: 200.0 mg/kg/injection, schedule: Q01DX005 (ip), vehicle: water 105 % of control | dose: 400.0 mg/kg/injection, schedule: Q01DX005 (ip), vehicle: water 113 % of control

Clc1cc(Cl)nc(N2CC2)n1
inactive: dose: 0.02 mg/kg/injection, schedule: Q01DX Z (ip), vehicle: methylcellulose (MC) 91 % of control | dose: 6.25 mg/kg/injection, schedule: Q01DX009 (ip), vehicle: acetone 108 % of control | dose: 12.5 mg/kg/injection, schedule: Q01DX009 (ip), vehicle: acetone 111 % of control | dose: 12.5 mg/kg/injection, schedule: Q04DX003 (ip), vehicle: saline 98 % of control | dose: 25.0 mg/kg/injection, schedule: Q04DX003 (ip), vehicle: saline 92 % of control

NNC(=O)CCO
inactive: [7] 103 % of control | [1] 89 % of control | [8] 105 % of control | [3] 100 % of control | [9] 94 % of control | [5] 96 % of control

CCO/C=C1\SC(=S)N(c2ccco2)C1=O
inactive: dose: 100.0 mg/kg/injection, schedule: Q01DX009 (ip), vehicle: saline sonified 98 % of control | dose: 200.0 mg/kg/injection, schedule: Q01DX009 (ip), vehicle: saline sonified 103 % of control | dose: 400.0 mg/kg/injection, schedule: Q01DX009 (ip), vehicle: saline sonified 92 % of control

OCC(O)C(O)C(O)/C=N\O (stereo unspecified)
inactive: [2] 107 % of control | [4] 107 % of control | [6] 100 % of control

C#CC[As+](c1ccccc1)(c1ccccc1)c1ccccc1
inactive: dose: 6.25 mg/kg/injection, schedule: Q01DX009 (ip), vehicle: Klucel (hydroxypropylcellulose) (HPC) 103 % of control | dose: 12.5 mg/kg/injection, schedule: Q04DX003 (ip), vehicle: Klucel (hydroxypropylcellulose) (HPC) 102 % of control

C1OC1[C@@H]1CC[C@H]1C1CO1 (stereo partly specified)
inactive: [10] 98 % of control and 112 % of control | dose: 51.1 mg/kg/injection, schedule: Q01DX Z (ip), vehicle: carboxymethylcellulose (CMC) 103 % of control | dose: 51.1 mg/kg/injection, schedule: Q01DX Z (ip), vehicle: methylcellulose (MC) 109 % of control | dose: 76.6 mg/kg/injection, schedule: Q01DX Z (ip), vehicle: carboxymethylcellulose (CMC) 114 % of control | dose: 76.6 mg/kg/injection, schedule: Q01DX Z (ip), vehicle: methylcellulose (MC) 118 % of control | dose: 88.0 mg/kg/injection, schedule: Q01DX001 (ip), vehicle: saline 107 % of control | [7] 112 % of control and 118 % of control | dose: 115.0 mg/kg/injection, schedule: Q01DX Z (ip), vehicle: methylcellulose (MC) 106 % of control | dose: 133.0 mg/kg/injection, schedule: Q01DX001 (ip), vehicle: saline 109 % of control

COc1cc(/C=N\N=C(/C)c2ccc(C)cc2C)cc(OC)c1OC
inactive: [11] 88 % of control | [12] 92 % of control

Cc1ccc(C(=O)C2CC2c2ccccc2)cc1 (stereo unspecified)
inactive: [13] 101 % of control | [14] 101 % of control | [15] 95 % of control

CCCCCOC(=O)C(O)C(C)(Cl)c1ccccc1 (stereo unspecified)
inactive: [16] 100 % of control | [17] 111 % of control | dose: 400.0 mg/kg/injection, schedule: Q04DX002 (ip), vehicle: Klucel (hydroxypropylcellulose) (HPC) 100 % of control

Cc1n[nH]c(=S)n1NC=O
inactive: [7] 94 % of control | [8] 94 % of control | [9] 90 % of control

O=C(OC1CCOCC1OC(=O)c1ccccc1)c1ccccc1 (stereo unspecified)
inactive: [11] 100 % of control | [12] 100 % of control | dose: 400.0 mg/kg/injection, schedule: Q04DX002 (ip), vehicle: saline with Tween-80 96 % of control

CC(Br)CCON1C(=O)c2ccccc2C1=O (stereo unspecified)
inactive: [10] 112 % of control | [7] 102 % of control | [8] 96 % of control | [9] 96 % of control

COc1ccccc1NC(=O)Nc1ccc(F)cc1
inactive: [18] 95 % of control | [13] 95 % of control | [19] 92 % of control | [14] 92 % of control | [20] 108 % of control | [15] 94 % of control

CCCCOc1ccc(NC(=O)CCl)cc1
inactive: dose: 100.0 mg/kg/injection, schedule: Q04DX003 (ip), vehicle: saline with Tween-80 89 % of control

c1ccc([P+](CC[P+](c2ccccc2)(c2ccccc2)c2ccccc2)(c2ccccc2)c2ccccc2)cc1
inactive: dose: 2.5 mg/kg/injection, schedule: Q04DX003 (ip), vehicle: saline 96 % of control | dose: 5.0 mg/kg/injection, schedule: Q01DX009 (ip), vehicle: saline 96 % of control | dose: 5.0 mg/kg/injection, schedule: Q04DX003 (ip), vehicle: saline 98 % of control | dose: 10.0 mg/kg/injection, schedule: Q01DX009 (ip), vehicle: saline 96 % of control | dose: 10.0 mg/kg/injection, schedule: Q04DX003 (ip), vehicle: saline 95 % of control and 98 % of control | dose: 20.0 mg/kg/injection, schedule: Q01DX009 (ip), vehicle: saline 104 % of control

CCOc1ccccc1C=C(C#N)C#N
inactive: [11] 100 % of control

O=S(=O)(Nc1ccc(NS(=O)(=O)c2ccccc2)nc1)c1ccccc1
inactive: [18] 96 % of control | [13] 101 % of control | [19] 98 % of control | [14] 97 % of control | [20] 101 % of control | [15] 101 % of control

N=C(N)Sc1cccc[n+]1[O-]
inactive: [7] 105 % of control | [8] 111 % of control

NNC(=O)CNc1cccc(Cl)c1
inactive: [16] 101 % of control | [17] 108 % of control

C/C(CC(O)(C(F)(F)F)C(F)(F)F)=N\Nc1ccccc1
inactive: dose: 100.0 mg/kg/injection, schedule: Q04DX003 (ip), vehicle: other 102 % of control | dose: 200.0 mg/kg/injection, schedule: Q04DX003 (ip), vehicle: other 97 % of control | dose: 400.0 mg/kg/injection, schedule: Q04DX003 (ip), vehicle: other 106 % of control

N#CCCN(CCCN1CCOCC1)CN1C(=O)c2ccccc2C1=O
inactive: dose: 100.0 mg/kg/injection, schedule: Q04DX002 (ip), vehicle: saline 104 % of control | dose: 200.0 mg/kg/injection, schedule: Q04DX002 (ip), vehicle: saline 93 % of control | dose: 400.0 mg/kg/injection, schedule: Q04DX002 (ip), vehicle: saline 111 % of control

CCCCCCCCCCCCCCCCCOc1ccc2ccccc2c1
inactive: dose: 100.0 mg/kg/injection, schedule: Q01DX001 (ip), vehicle: saline with Tween-80 87 % of control | dose: 200.0 mg/kg/injection, schedule: Q01DX001 (ip), vehicle: saline with Tween-80 89 % of control

CCCCNC(C)C1(O)Cc2c(O)c3c(c(O)c2C(OC2CC(N)C(O)C(C)O2)C1)C(=O)c1c(OC)cccc1C3=O (stereo unspecified)
inactive: dose: 5.0 mg/kg/injection, schedule: Q01DX009 (ip), vehicle: water 100 % of control | dose: 10.0 mg/kg/injection, schedule: Q01DX009 (ip), vehicle: water 100 % of control | dose: 20.0 mg/kg/injection, schedule: Q01DX009 (ip), vehicle: water 92 % of control | dose: 80.0 mg/kg/injection, schedule: Q01DX009 (ip), vehicle: water 104 % of control

Cc1c(CN(C)C)cccc1C(=O)Nc1ccccc1
inactive: [10] 115 % of control | [8] 104 % of control

O=CC1=C(Cl)c2ccccc2CC1
inactive: dose: 12.5 mg/kg/injection, schedule: Q04DX003 (ip), vehicle: acetone 98 % of control

COC(OC)C1C=CC=CC=C1
inactive: dose: 200.0 mg/kg/injection, schedule: Q01DX009 (ip), vehicle: saline with Tween-80 95 % of control
